Measured values: patent US20110039825A1, “LIGANDS OF ALPHA-ADRENOCEPTORS, DOPAMINE, HISTAMINE, IMIDAZOLINE AND SEROTONIN RECEPTORS AND THEIR USE” (Alla Chem, LLC, priority 2007, published 2011)

What was measured:
male mice of BALB/c line = assay: Passive Avoidance of mice in the Shuttle Chamber, memory disturbed by Scopolamine; assay type: in vivo; settings: Scopolamine 0.3 mg/kg
Method: A shuttle chamber (Ugo Basile, Italy) consisted of two sections was used. […] The sections were connected through a hole which could be overlapped by a vertical door. The floor was made of transverse metal bars on which DC current impulses could be fed. Experiments were carried out in aged male mice of BALB/c line weighing 20-24 grams.
Each group consisted of at least 8 animals. Animal was placed in light section, and latent period of the first entry into dark chamber was registered. Then the vertical door was closed and the animal was punished by 0.6 mA DC current for 3 seconds. After that it was taken back to its homecage. In 22-24 hours the same animal was placed again in light section of the shuttle chamber and latent period of its first entry into dark section, the total time of its stay in light section, and the number of entries into dark section, were registered. Each monitoring lasted for 5 minutes.
Testing was carried out during the day time in isolated laboratory using white noise at level of about 70 decibel above human hearing threshold.
Scopolamine causes the disturbance of training (memory loss) that results in […].

mice = assay: Mice Training in Morris Water Maze (Scopolamine); assay type: in vivo; settings: unitary introduction of active ingredient
Method: Mice Training in Morris Water Maze. A round pool which was filled with water at 20-22° C. was used. A round ceramic platform of 14 cm height was placed in the pool. Animals's behavior was registered with automated computer videosystem in combination with software package of movement analysis Any-maze (Stoelting Co., US). Before testing mice suitable for training were selected. That was done by placing the platform 1 cm above the water level and putting an animal on the platform for 20 seconds. Then the mouse was sunk into the water on the opposite side of the pool, allowed to find the platform and climbed it within 60 seconds, where it was left for additional 20 seconds. After that the mouse was repeatedly immersed into water on the opposite side of the pool and allowed to look for platform. If it failed in finding the platform within 60 seconds the experimentator helped it to find the platform and climb it. If the mice could not find the platform itself in two consecutive attempts it was excluded from experiment.
During the next two days the platform was placed 0.5 centimeter lower the water level. Every day the mice were given four attempts for finding the platform within 60 seconds. The time interval between the attempts was 20 seconds, during which the mice stayed on the platform. Every day before the first attempt mouse was placed on the platform for 20 seconds. The time needed for finding and climbing the platform was registered. The animals were sunk in water in 3 different places on the side of the pool opposite to platform. On each day of two-day testing 35-40 minutes before the beginning of training the mice were injected intraintestinally with physiological solution, Scopolamine or Scopolamine in combination with investigated compound. At least 8 animals were used in each group.
On the third day the platform was removed and each animal was placed one time in the pool for a period of 60 seconds. The time each mouse spent in the area where the platform had been located during the previous days was registered. This time interval was regarded as a measure of effectiveness of training fulfilled during the previous two days. The testing was carried out during the day time in isolated laboratory using “white noise” at level of about 70 decibel above the human hearing threshold.

adrenergic receptor α1B = target: T1, adrenergic receptor α1B (Rattus norvegicus, UniProt P15823); assay: radioligand binding to adrenergic receptor α1B ([3H] Prazosin)
T1 construct: membrane species from rat liver (rat of Wistar breed) are prepared; from tissue; host or cells: rat (Wistar) liver membranes
T1 sequence (P15823 1-515): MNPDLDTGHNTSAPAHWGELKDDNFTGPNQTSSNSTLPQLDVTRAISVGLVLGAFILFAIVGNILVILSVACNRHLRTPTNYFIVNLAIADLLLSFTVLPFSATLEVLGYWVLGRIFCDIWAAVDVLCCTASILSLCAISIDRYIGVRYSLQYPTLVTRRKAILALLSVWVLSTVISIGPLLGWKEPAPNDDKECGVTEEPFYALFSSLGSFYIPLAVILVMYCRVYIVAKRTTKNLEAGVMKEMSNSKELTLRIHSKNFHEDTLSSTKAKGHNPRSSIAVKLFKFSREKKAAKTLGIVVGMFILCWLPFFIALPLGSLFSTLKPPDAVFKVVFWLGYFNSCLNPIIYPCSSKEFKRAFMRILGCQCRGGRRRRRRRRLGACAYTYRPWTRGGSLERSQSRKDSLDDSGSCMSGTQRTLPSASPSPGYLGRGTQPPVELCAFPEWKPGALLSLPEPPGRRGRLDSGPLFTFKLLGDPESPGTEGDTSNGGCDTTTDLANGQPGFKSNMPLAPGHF
From the text: Species heterogeneity of hepatic α1A-, α1B-, and α1C-subtypes. Biochem Biophys Res Commun. 186:760-7676 1992]. […] Prazosin is used as positive control.

human α1D receptor = target: T2, human α1D receptor (Homo sapiens, UniProt P25100); assay: radioligand binding to adrenergic receptor α1D ([3H] Prazosin)
T2 construct: expressed in transfected cells; host or cells: HEK-293
T2 sequence (P25100 1-572): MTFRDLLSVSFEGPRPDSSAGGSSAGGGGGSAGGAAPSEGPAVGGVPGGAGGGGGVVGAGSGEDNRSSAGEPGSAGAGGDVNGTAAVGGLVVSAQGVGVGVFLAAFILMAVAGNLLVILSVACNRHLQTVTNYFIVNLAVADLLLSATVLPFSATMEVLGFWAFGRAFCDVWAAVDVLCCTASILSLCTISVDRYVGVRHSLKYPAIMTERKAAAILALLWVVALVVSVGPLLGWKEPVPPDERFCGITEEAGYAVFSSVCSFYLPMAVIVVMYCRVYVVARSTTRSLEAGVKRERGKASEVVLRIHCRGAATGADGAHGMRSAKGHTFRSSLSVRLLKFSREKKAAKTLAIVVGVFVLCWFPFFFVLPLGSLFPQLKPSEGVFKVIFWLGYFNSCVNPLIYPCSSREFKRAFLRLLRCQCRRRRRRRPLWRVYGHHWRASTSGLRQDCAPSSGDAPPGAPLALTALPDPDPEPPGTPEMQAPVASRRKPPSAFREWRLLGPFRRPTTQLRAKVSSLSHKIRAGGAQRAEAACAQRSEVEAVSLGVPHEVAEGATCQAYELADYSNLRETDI
From the text: 6-C. […] For this purpose sDNA of human α1D receptor is expressed in HEK-293 cells, as it was described in [T L Theroux, T A Esbenshade, R D Peavy and K P Minneman. Coupling efficiencies of human alpha 1-adrenergic receptor subtypes: titration of receptor density and responsiveness with inducible and repressible expression vectors. Mol. Pharmacol.; 50: 1376-1387, 1996]. […] Prazosin is used as positive control.

human D2S receptor = target: T3, human D2S receptor (Homo sapiens, UniProt P14416); assay: radioligand binding to dopamine receptor D2S ([3H] Spiperone)
T3 construct: expressed in transfected cells; host or cells: CHO
From the text: 7-C. […] For this purpose sDNA of human D2S receptor is expressed in CHO cells, as described in [Hayes G, Biden T J, Selbie L A and Shine J, Structural subtypes of the dopamine D2 receptor are functionally distinct. […] Mol. Endocrinol. […] Mol. Endocrinol. […] Spiperone is used as positive control.

adrenergic receptor α1A = target: T4, adrenergic receptor α1A (Rattus norvegicus, UniProt P43140); assay: radioligand binding to adrenergic receptor α1A ([3H] Prazosin)
T4 construct: membrane species from rat submaxillary glands (rat of Wistar breed) are prepared; from tissue; host or cells: rat (Wistar) submaxillary gland membranes
T4 sequence (P43140 1-466): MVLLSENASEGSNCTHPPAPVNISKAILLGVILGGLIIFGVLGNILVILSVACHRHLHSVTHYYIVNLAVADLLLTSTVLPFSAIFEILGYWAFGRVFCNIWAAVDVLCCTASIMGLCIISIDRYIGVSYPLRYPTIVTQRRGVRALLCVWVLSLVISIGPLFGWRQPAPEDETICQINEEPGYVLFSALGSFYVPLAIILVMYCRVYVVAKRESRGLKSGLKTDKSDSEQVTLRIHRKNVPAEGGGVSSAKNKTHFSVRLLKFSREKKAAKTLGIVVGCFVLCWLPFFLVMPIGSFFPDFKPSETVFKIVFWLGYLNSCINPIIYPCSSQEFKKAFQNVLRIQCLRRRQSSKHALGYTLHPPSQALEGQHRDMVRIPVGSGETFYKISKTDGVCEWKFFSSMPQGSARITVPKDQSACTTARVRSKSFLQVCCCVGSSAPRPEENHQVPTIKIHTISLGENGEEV
Method: Determination of investigated compounds' binding to α1A receptor was carried out according to the method described in [Michel A D, Loury D N and Whiting R l. Identification of a single α1A-adrenoceptor corresponding to the α1A-subtype in rat submaxillary gland. Br J. Pharmacol. 98:883-889, 1989]. […] Prazosin is used as positive control.

imidazoline receptor I2 = assay: radioligand binding to imidazoline receptor I2 ([3H] Idazoxan); design: species or system rat; settings: 10 μM ligand
Method: Determination of investigated compounds' binding to imidazoline I2 receptor is carried out according to the method described in [Brown C M, MacKinnon A C, McGrath J C, Spedding M and Kilpatrick A T, a2-Adrenoceptor subtypes and imidazoline-like binding in the rat brain. Br J. Pharmacol. 99:803-809, 1990]. […] Idazoxan is used as positive control.

human α2A receptor = target: T5, human α2A receptor (Homo sapiens, UniProt P08913); assay: radioligand binding to adrenergic receptor α2A ([3H] MK-912)
T5 construct: expressed in transfected cells; host or cells: Sf9
T5 sequence (P08913 1-465): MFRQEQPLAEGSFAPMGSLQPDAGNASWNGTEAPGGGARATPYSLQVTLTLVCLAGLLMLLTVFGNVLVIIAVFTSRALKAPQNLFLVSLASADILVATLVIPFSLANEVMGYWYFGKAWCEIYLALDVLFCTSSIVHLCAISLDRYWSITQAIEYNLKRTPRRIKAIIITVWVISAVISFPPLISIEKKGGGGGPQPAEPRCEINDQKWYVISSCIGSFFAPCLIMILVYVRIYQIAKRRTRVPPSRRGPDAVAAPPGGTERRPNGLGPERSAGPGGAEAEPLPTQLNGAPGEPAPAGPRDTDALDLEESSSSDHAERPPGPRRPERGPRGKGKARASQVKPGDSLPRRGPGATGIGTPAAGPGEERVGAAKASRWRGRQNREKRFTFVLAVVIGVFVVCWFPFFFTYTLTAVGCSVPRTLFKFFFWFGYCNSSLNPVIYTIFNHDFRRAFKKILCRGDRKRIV
From the text: J Pharmacol ExpTher. […] Yohimbine is used as positive control.

human D1 receptor = target: T6, human D1 receptor (Homo sapiens, UniProt P21728); assay: radioligand binding to dopamine receptor D1 ([3H] SCH-23390)
T6 construct: expressed in transfected cells; host or cells: CHO
From the text: For this purpose sDNA of human D1 receptor is expressed in CHO cells, as it was described in [Dearry A, Gingrich J A, Falardeau P, Fremeau R T Jr, Bates M D and Caron M G. Molecular cloning and expression of the gene for a human D1 dopamine receptor. Nature. […] Nature.

human H1 receptor = target: T7, human H1 receptor (Homo sapiens, UniProt P35367); assay: radioligand binding to histamine receptor H1 ([3H] Pyrilamine)
T7 construct: expressed in transfected cells; host or cells: CHO-K1
From the text: Biochem Biophys Res Comm. 197(3): 1601-1608, 1993]. […] Biochem Biophys Res Comm. 197(3): 1601-1608, 1993].
Pyrilamine is used as positive control.

T7 sequence (P35367 whole entry): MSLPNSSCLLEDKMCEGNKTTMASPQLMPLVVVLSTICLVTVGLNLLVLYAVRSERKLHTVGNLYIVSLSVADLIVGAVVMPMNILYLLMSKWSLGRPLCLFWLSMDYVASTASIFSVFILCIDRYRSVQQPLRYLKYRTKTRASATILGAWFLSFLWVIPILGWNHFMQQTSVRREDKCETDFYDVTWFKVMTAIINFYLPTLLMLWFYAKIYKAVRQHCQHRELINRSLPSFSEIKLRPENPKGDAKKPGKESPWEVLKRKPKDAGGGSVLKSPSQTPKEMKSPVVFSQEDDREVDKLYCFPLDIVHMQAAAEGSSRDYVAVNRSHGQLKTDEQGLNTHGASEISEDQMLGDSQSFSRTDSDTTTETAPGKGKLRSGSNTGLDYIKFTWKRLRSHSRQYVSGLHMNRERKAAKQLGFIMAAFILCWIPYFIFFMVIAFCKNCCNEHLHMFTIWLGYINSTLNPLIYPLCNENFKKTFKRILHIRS
T3 sequence (P14416 1-414 isoform P14416-2): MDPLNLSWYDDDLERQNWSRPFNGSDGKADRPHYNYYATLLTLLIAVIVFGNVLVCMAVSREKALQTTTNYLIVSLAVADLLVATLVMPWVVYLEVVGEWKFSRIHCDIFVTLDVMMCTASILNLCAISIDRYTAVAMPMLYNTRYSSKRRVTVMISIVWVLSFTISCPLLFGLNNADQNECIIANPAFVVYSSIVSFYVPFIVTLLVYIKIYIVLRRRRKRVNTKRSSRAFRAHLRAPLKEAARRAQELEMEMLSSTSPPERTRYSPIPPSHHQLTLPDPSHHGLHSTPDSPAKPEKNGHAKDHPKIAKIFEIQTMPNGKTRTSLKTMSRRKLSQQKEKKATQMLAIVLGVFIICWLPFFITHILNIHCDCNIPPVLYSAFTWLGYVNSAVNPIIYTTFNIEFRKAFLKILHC
T6 sequence (P21728 whole entry): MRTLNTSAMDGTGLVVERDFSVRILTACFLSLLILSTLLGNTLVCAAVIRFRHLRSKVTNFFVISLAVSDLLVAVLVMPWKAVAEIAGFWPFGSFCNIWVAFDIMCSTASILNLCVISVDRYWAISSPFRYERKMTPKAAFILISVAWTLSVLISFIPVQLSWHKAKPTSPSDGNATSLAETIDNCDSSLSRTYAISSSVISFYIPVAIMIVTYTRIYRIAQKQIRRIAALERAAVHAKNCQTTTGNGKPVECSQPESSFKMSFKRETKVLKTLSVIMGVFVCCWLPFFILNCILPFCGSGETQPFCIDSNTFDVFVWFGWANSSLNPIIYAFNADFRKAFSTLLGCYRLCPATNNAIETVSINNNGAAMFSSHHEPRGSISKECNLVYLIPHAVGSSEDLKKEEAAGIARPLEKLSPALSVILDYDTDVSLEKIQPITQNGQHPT

Cc1ccc2c(c1)c1c(n2CCc2ccccc2)CCN(C)C1 [1.1.2(1-2), 2,8-dimethyl-5-phenethyl-1,2,3,4-tetrahydro-1H-pyrido[4,3-b]indole]
enhancement of memory disturbed by Scopolamine (passive avoidance) (male mice of BALB/c line): improve memory | memory disorders caused by Scopolamine in Morris water maze (mice): decreasing memory disorders coused by Scopalomine

Cc1ccc2c(c1)c1c(n2CCc2ccc(C)nc2)CCN(C)C1.Cl.Cl [1.1.2(4-2)•2HCl]
IC50 (adrenergic receptor α1B): 87 nM | Ki (adrenergic receptor α1B): 48 nM | nH α1B (adrenergic receptor α1B): 1.54 | IC50 (human α1D receptor): 239 nM | Ki (human α1D receptor): 118 nM | IC50 (human D2S receptor): 1750 nM | nH D2S (human D2S receptor): 0.724 | IC50 (adrenergic receptor α1A): 136 nM | Ki (adrenergic receptor α1A): 55 nM | nH α1A (adrenergic receptor α1A): 1.12 | imidazoline I2 receptor % inhibition (imidazoline receptor I2): 98% | IC50 (human α2A receptor): 286 nM | Ki (human α2A receptor): 107 nM | nH α2A (human α2A receptor): 0.828 | IC50 (human D1 receptor): 4410 nM | IC50 (human H1 receptor): 4.28 nM | Ki (human H1 receptor): 1.6 nM | nH H1 (human H1 receptor): 1.01

Cc1ccc2c(c1)c1c(n2CCc2ccncc2)CCCN(C)C1.Cl.Cl [1.2.2(5-3)•2HCl]
memory disorders caused by Scopolamine in Morris water maze (mice): decreasing memory disorders coused by Scopalomine
